# Test results as given in US20050209193A1, “Method for enhanced photodynamic therapy” (priority 2003, published 2005).
# Legend:
# skin of the subject = test: Determination of effective treatment time for PDT/IPL/RF rejuvenation therapy after ALA application; assay type: in vivo, human
# Description: ALA, was applied to the skin of the subject. The light used for PDT was IPL comprising a variety of wavelengths, with an intensity of 26 J. PDT/IPL/RF was applied at various time points following ALA application. […] The increase in efficacy leveled off at hours 5 and 6.
# A 4-hour treatment with ALA was required for significant efficacy of PDT/IPL/RF. A time course of this length may be accompanied by increases in erythema and other side effects. In order to minimize side effects, it was determined that a 1-hour treatment was preferred. The 1-hour treatment requires repeated administrations for maximum efficacy, but prevents skin breakdown. With its potential for increased side effects, the 4-hour treatment should be reserved for severe premalignant cases only.
# [1] = system: skin of patients (keratoses, sun damage, rosacea, melasma, wrinkles); test: Treatment of patients with PDT/IPL/RF after ALA application; assay type: in vivo, human
# Experimental: Four patients were treated with a combination of PDT, IPL, and RF. ALA was applied to the patients at time 0.
# Patient 1 received one PDT/RF/IPL peel treatment at full energy (26 J) 4 hours after application of ALA.
# Patients 2, 3, and 4 received four sessions of PDT/RF/IPL photofacial treatments at full energy (26 J) 1 hour after application of ALA.
# [2] = Patient 1, one PDT/RF/IPL peel treatment at 26 J, 4 hours after ALA
compound,measurement,setting,value
"NCC(=O)CCC(=O)O [ALA, 5-aminolevulinic acid]",efficacy of PDT/IPL/RF versus standard IPL/RF alone,"skin of the subject; PDT/IPL/RF applied 15 minutes after ALA application, IPL 26 J, human test subject",no more efficacious than standard IPL/RF alone
same,efficacy of PDT/IPL/RF over RF alone,"skin of the subject; PDT/IPL/RF applied 30 minutes after ALA application, IPL 26 J",minimal increase in efficacy
same,efficacy of PDT/IPL/RF over RF alone,"skin of the subject; PDT/IPL/RF applied 45 minutes after ALA application, IPL 26 J",minimal increase in efficacy
same,efficacy of PDT/IPL/RF,"skin of the subject; PDT/IPL/RF applied 1 hour after ALA application, IPL 26 J",noticeable increase in efficacy
same,efficacy of PDT/IPL/RF,"skin of the subject; PDT/IPL/RF applied 2 hours after ALA application, IPL 26 J",noticeable increase in efficacy
same,efficacy of PDT/IPL/RF,"skin of the subject; PDT/IPL/RF applied 4 hours after ALA application, IPL 26 J",largest increase of any point in time
same,efficacy of PDT/IPL/RF,"skin of the subject; PDT/IPL/RF applied 5 hours after ALA application, IPL 26 J",leveled off
same,efficacy of PDT/IPL/RF,"skin of the subject; PDT/IPL/RF applied 6 hours after ALA application, IPL 26 J",leveled off
same,ALA treatment time required for significant efficacy of PDT/IPL/RF,skin of the subject; human test subject,4 h
same,effect on lentigines,"[1]; 4-hour treatment, Patient 1",selective destruction of lentigines
same,effect on atypia and keratoses,[1]; [2],significant darkening and slough of atypia and keratoses
same,effect on wrinkles,[1]; [2],diminution of wrinkles
same,skin rejuvenation,[1]; [2],generalized skin rejuvenation
same,"effect on sun damage, rosacea, and melasma","[1]; Patients 2, 3 and 4, four sessions PDT/RF/IPL photofacial at 26 J, 1 hour after ALA","decrease in sun damage, rosacea, and melasma"
